According to patent publication US12571800B2, “Means and methods for treating angiogenesis-related diseases” (Heidelberg Biotech GmbH, priority 2011, dated 2026):
Each block holds one molecule with its values, some of them ahead of it.

Tests used:
[1] = test system: Fc-Endostatin-resistant LLC cells (Endo P4); test: Fc-Endostatin-resistant LLC tumors, passage 5, IGF1R inhibitor; format: in vivo, C57B16 mice
Source text: Previously generated passage four Fc-Endostatin-resistant LLC cells (Endo P4, as described in the following examples) were subcutaneously injected to C57B16 mice.

Wild type LLC tumors = test: Wild type LLC lung cancer model, prevention trial; format: in vivo, C57B16 mice
Description: Wild type LLC tumors (10.000 cells) were implanted s.c. in C57B16 mice. Tumors were sham treated (PBS, control), with the reference FN-mimetic-peptide (“FN-Motif”) containing only the “[…]” sequence (SEQ ID NO: 8) or with murine Superstatin (SEQ ID NO: 7) at the dose of 50 μg peptide in 100 μl PBS every 12 h s.c. (n: 5 in each group). Treatment was started 4 days after tumor implantation (“prevention trial”) and continued for 24 days. […] Tumor size reaching 1000 mm^2 was considered as death event in the Kaplan-Meier analysis.
Tumors were sham treated (PBS), with the reference FN-mimetic-peptide containing only the “[…]” sequence (SEQ ID NO: 8; FN motif) or with murine Superstatin (SEQ ID NO: 7) at the dose of 50 μg peptide in 100 μl PBS every 12 h s.c. (n: 5 in each group). Treatment was started 4 days after tumor implantation (“prevention trial”) and continued for 24 days. […] Tumor size reaching 1000 mm^2 was considered as death event in the Kaplan-Meier analysis.

LLC FN −/− tumor cells = test: Fibronectin knockdown LLC tumor model; format: in vivo, C57B16 mice; settings: treatment started day 4 post implantation; p<0.01 vs control or Fc-Endostatin
Source text: In contrast, the Superstatin peptide (SEQ ID NO: 7) exerts potent tumor growth inhibition in FN −/− LLC tumors growing s.c. in C57B16 mice.
Once the efficacy of the Superstatin peptide (SEQ ID NO: 7) was confirmed, the inventors moved toward the second strategy to validate the proposed concept that FN signaling is critical for oligomeric NC-1 to exert their anti-angiogenic and anti-tumoral effects. […] LLC FN −/− tumor cells (100.000) were implanted in C57B16 mice and treatment with dimeric murine Fc-Endostatin vs. Superstatin was started on day 4 post implantation. Knockdown of FN rendered LLC tumors resistant to oligomeric NC-1 (Fc-Endostatin).

fibronectin [2] = biological target: T1, fibronectin (Homo sapiens, UniProt P02751); test: Elisa, binding to fibronectin; settings: proteins coated at 10 μg/ml; fibronectin as ligand at the same concentration
Description: Coating of proteins were done in PBS at concentration of 10 μg/ml. Fibronectin served as a ligand at the same concentration. All buffers contained 2% BSA, 0.1% Tween-20.
Three protein constructs human Fc (control), dimeric human (h)Fc-Endostatin and hFc-VEGF were employed. […] Artificial endostatin dimer was generated by introducing a single mutation in amino acid position 7 of endostatin (changing glutamine to cysteine) in the recombinant Fc-endostatin. Upon digestion of this mutant protein by enterokinase, endostatin dimer is produced, linked by a disulfide bond (Kuo et al., loc. cit.).

fibronectin [3] = biological target: T1, fibronectin; test: Biacore (SPR) equilibrium binding constants to fibronectin; settings: fibronectin 0.78 nM-100 nM over immobilized protein; values only in FIG. 1C
Description: Fibronectin samples were prepared by serial dilution into 0.01 M Hepes, pH 7.4, 0.15 M NaCl, 0.05% Surfactant containing 1 mg/ml BSA in the range 0.78 nM-100 nM and flowed over control and derivatized surfaces for three minutes at a flow-rate of 60 μl/min. Dissociation phases were monitored for 5 minutes. Zero concentration blank buffer cycles were included as negative control samples. Sensor surfaces were regenerated using a 1 minute injection of 1 M ethanolamine, pH 8.5 following each interaction analysis cycle. Non-specific binding effects to sensor surface CM4 were not observed. Calculated ka, kd and KD are shown. Different curves correspond to different concentrations of fibronectin.
1.3 Surface Plasmon Resonance (SPR) binding assays. This analysis provides for a unique method for measuring equilibrium constants between two binding partners. It is able to evaluate the kinetics of an interaction by recording the rates of complex formation (ka) and dissociation (kd) followed by employing a software which determines the values of these two parameters. Equilibrium constant (KD) is obtained by calculating the ration of kd/ka Human VEGF (R&D), endostatin, endostatin dimer and human NC-1 (hNC-1) were diluted to 50 μg/ml in 10 mM Sodium Acetate, pH 5.5 and immobilized onto series S sensor chip(s) CM4 via a standard N-ethyl-N′-(dimethyl-aminopropyl)carbodiimide/N-hydroxysuccinimide (EDC/NHS) amine coupling procedures. Control surfaces were prepared similarly without protein derivatization and utilized as a reference surface for compound binding experiments.
Binding measurements were performed using a Biacore™ (GE Healthcare, Uppsala, Sweden) instrument which employs surface plasmon resonance to detect and monitor molecular interactions.
Data analysis was carried out using Biacore T100 evaluation software v1.1.1. Data were prepared by subtraction of reference surface data and blank buffer sample data, a procedure commonly referred to as ‘double referencing’ and fitted to a 1:1 langmuir binding model.
In order to measure equilibrium binding constants for the above proteins, a Biacore system was employed. […] Fc-endostatin imposes a dimeric structure on the two molecules of endostatin at the C-terminus of Fc dimer.

VEGF = biological target: T2, VEGF (Homo sapiens, UniProt P15692); test: Competition with VEGF-ED-dimer (Fc-Endostatin) binding; settings: preliminary data
T2 sequence (P15692 207-395 limits assumed): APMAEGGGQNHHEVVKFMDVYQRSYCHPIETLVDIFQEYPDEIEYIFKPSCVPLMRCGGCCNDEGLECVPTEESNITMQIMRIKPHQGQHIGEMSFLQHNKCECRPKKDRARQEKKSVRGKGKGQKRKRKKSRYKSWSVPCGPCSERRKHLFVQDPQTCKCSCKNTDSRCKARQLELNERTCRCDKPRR
Source text: The first approach was to engineer a minimal peptide sequence that would mimic the key effects of the ED-FN complex. […] Preliminary data by the present inventors indicate that this region itself may be capable of binding to VEGF and that the two histidines (Zinc binding domain) in this peptide sequence may be critical for VEGF binding. […] On the other hand, fibronectin contains two active motifs that are critical for its binding to ITGA5B1, i.e. a PHSRN-(SEQ ID NO:20) and a RGD-dependent motif.

[4] = in vivo; cited from earlier work
[5] = cited from earlier work
α5β1 = α5β1 (Homo sapiens, UniProt P05556+P08648); test: Direct binding to integrin α5β1 (Elisa, immunoprecipitation, cell adhesion); settings: immunoprecipitation and cell adhesion assays
Source text: Endostatin binding to two integrins αvβ3 and α5β1 was first reported in 2001 (Rehn et al. 2001, PNAS 98, 1024). Presumably, such a binding inhibits interactions of fibronectin with these integrins. […] Endostatin lacks the sequence RGD. Consequently, such a binding must be mediated by other amino acids on endostatin.

[6] = test system: human melanoma cancer cells (A2058); test: A2058 human melanoma tumors in nude mice; format: in vivo; settings: end of experiment; s.c. once a day; hNC-1 100 μg/mouse, endostatin 100 and 500 μg/mouse
Description: 4-6 tumor-bearing nude mice in each group were subcutaneously (s.c.) treated with hNC-1 (100 μg/mouse once a day), clinical-grade endostatin (100 and 500 μg/mouse once a day) or PBS. Treatment was stopped prior to the development of necrosis. Sites of injection were away from tumors. Tumor sizes and the ratio of treated/control (T/C) is shown.
1.4 Animal and tumor models. All animal procedures were carried out in compliance with Children's Hospital Boston guidelines Protocols were approved by the Institutional Animal Care and Use Committee. Eight-week-old male (24-27 g) nude/nude mice (Massachusetts General Hospital, Boston, MA) were used. Mice were acclimated, caged in groups of five in a barrier care facility, and fed animal chow and water ad libitum. Animals were euthanized by CO2 inhalation. Human melanoma cell line A2058 was used for animal studies. A suspension of 2×10^6 tumor cells in 0.1 ml of PBS was injected subcutaneously (s.c.) into the dorsa of mice at the proximal midline. Mice were weighed and tumors were monitored twice a week in two diameters with digital calipers. Tumor volumes were determined using a^2×b×0.52 (where a is the shortest and b is the longest diameter). Tumors were allowed to grow to ˜100 mm^3 and mice were randomized. Treatment was by bolus s.c. injections. After experiments were completed, tumors and organs were excised and fixed in either 4% paraformaldehyde or were snap frozen. Four to six mice were treated with each group.
2.6 hNC-1 suppresses tumor growth in vivo. In order to compare anti-tumor activities of NC-1 and endostatin, nude mice bearing human melanoma cell line A2058 were employed. Two doses of clinical grade endostatin differing by 5-fold in concentration of protein (low and high doses) were used. […] It cannot be ruled out the possibility that injected NC-1 becomes degraded upon entering the circulation.

[7] = 50 μg peptide every 12 h s.c., day 4 on for 24 days

T1 sequence (P02751 32-2477): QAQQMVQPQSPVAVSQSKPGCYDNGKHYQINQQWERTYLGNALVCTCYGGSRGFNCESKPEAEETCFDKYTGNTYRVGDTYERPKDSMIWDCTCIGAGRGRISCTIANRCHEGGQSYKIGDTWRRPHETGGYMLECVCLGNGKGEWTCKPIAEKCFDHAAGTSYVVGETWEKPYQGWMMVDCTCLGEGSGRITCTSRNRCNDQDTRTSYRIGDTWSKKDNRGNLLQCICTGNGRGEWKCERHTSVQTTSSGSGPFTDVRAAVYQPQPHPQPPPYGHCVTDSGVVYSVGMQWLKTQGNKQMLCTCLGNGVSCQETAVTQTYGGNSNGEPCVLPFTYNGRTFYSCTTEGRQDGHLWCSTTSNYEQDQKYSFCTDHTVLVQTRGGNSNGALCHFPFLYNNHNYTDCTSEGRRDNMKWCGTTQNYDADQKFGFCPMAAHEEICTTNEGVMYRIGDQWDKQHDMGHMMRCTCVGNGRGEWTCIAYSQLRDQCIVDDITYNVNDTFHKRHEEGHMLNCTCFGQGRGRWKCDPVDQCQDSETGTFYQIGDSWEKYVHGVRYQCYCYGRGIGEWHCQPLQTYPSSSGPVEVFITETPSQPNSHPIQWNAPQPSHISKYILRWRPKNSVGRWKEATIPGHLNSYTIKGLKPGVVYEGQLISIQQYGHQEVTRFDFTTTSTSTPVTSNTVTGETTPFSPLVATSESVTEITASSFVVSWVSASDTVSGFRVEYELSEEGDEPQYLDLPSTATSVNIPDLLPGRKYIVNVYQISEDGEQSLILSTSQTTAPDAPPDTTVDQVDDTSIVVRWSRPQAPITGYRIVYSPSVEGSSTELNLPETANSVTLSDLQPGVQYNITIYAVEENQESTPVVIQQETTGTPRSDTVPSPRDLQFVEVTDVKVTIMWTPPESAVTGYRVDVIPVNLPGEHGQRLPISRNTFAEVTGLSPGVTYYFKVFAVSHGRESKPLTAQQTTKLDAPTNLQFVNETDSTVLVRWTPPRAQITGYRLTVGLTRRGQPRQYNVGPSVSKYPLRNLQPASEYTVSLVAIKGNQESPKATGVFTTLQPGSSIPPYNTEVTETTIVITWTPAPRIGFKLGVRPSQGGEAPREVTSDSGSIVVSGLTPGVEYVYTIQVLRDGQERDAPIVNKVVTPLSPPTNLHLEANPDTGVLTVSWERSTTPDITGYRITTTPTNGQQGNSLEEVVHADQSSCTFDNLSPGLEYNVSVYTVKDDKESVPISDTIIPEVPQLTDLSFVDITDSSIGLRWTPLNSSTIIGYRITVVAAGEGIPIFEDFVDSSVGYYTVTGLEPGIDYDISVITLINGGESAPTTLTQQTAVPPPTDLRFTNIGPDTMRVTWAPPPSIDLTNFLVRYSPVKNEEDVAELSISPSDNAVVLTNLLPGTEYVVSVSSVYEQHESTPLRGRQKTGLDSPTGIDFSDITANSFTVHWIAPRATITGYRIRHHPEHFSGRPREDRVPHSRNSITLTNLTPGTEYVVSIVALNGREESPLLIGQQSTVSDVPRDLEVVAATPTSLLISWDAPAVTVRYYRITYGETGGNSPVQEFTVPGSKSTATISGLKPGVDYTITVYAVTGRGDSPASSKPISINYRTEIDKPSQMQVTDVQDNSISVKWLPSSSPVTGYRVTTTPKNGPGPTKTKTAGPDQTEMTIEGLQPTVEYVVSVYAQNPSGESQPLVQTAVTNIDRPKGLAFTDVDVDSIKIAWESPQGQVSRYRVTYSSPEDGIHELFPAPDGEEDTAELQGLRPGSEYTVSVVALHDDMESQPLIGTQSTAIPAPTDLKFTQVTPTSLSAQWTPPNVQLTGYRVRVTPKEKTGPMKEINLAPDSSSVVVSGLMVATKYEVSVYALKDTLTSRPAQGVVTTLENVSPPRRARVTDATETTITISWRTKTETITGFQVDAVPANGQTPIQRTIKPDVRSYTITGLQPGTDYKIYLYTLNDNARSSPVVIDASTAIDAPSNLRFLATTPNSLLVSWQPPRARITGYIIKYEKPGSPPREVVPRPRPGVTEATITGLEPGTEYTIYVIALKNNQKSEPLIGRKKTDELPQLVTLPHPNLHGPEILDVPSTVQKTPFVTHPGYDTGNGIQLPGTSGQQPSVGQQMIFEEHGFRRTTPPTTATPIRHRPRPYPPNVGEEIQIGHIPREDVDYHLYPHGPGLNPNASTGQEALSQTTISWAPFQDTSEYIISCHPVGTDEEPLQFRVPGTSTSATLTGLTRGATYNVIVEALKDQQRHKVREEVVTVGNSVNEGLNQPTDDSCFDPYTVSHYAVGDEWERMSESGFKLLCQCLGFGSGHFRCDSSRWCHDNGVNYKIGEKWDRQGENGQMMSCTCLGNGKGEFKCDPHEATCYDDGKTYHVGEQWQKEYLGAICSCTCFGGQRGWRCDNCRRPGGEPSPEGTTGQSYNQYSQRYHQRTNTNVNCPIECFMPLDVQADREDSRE
Sequence of α5β1 (P08648 42-894 limits assumed): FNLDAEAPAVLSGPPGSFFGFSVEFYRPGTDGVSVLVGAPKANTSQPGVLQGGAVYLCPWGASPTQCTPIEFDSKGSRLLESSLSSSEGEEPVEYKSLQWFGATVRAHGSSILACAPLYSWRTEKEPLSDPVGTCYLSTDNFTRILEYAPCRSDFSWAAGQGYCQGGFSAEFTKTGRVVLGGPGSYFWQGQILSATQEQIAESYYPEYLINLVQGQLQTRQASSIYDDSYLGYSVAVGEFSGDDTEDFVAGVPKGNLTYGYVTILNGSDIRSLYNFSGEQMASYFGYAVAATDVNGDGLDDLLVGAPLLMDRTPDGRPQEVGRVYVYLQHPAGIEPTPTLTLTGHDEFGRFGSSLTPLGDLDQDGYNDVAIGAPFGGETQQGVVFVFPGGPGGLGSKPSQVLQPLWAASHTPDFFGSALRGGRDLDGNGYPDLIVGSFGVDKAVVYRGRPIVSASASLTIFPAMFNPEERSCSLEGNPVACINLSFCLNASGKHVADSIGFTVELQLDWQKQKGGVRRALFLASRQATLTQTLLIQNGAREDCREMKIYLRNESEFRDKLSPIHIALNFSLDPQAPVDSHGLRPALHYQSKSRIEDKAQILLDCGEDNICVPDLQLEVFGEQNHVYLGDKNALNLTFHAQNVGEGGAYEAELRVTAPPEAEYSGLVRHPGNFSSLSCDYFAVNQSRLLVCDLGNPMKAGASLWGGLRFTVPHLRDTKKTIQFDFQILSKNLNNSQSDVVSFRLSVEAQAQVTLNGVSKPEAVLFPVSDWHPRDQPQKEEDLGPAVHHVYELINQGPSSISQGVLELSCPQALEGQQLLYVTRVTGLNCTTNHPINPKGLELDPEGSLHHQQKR
Sequence of α5β1 (P08648 895-1049 limits assumed): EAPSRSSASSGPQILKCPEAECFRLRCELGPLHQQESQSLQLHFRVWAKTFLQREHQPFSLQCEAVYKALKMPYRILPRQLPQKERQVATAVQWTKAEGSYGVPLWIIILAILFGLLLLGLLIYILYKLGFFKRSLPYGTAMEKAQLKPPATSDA
Sequence of α5β1 (P05556 21-798): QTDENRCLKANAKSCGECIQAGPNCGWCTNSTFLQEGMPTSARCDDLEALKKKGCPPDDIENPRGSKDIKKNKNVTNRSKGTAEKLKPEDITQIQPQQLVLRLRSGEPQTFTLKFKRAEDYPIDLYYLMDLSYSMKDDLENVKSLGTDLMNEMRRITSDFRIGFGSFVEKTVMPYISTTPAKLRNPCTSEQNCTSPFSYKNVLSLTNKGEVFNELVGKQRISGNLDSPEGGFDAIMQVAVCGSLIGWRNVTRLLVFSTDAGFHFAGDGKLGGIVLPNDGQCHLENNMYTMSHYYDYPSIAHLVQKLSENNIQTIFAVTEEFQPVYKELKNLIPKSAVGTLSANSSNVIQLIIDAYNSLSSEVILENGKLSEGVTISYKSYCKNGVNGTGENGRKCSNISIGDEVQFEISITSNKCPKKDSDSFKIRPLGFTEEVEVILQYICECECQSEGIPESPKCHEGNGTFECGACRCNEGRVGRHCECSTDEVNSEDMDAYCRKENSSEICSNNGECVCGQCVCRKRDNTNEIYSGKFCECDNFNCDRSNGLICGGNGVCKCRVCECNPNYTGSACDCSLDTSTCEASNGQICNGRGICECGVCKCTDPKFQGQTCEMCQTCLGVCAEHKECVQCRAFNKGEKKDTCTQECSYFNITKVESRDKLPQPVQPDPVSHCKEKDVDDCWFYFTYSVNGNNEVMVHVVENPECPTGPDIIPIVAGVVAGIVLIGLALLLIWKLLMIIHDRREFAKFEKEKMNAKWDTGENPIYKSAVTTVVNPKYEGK

- binding to fibronectin (Elisa) (fibronectin [2]): bound fibronectin
- equilibrium binding constant to fibronectin (Biacore) (fibronectin [3]): High affinity constants
Molecule: VEGF [reference compound]

- competition with VEGF-ED-dimer (Fc-Endostatin) binding (VEGF): failed to compete
Molecule: mP1-H1/3A: ATAQDFQPVLHLVALNTPLSGGMRGIR (SEQ ID NO: 19) (mP1-H1/3A)

- binding to fibronectin (Elisa) (fibronectin [2]): did not
- equilibrium binding constant to fibronectin (Biacore) (fibronectin [3]): No binding was detected
- direct binding to α5β1 (α5β1): without success
B1: endostatin: 183-amino acid proteolytic cleavage fragment corresponding to the C-terminus of collagen 18 (protein, UniProt P39060 1572-1754, looked up)
Endostatin: HSHRDFQPVLHLVALNSPLSGGMRGIRGADFQCFQQARAVGLAGTFRAFLSSRLQDLYSIVRRADRAAVPIVNLKDELLFPSWEALFSGSEGPLKPGARIFSFDGKDVLRHPTWPQKSVWHGSDPNGRRLTESYCETWRTEAPSATGQASSLLGGRLLGQSAASCHHAYIVLCIENSFMTASK
modifications: Endostatin
- half-life in circulation [4]: very short
- anti-tumor activity in clinical trials ([5]; in vivo): did not demonstrate substantial endostatin anti-tumor activity
- safety in clinical trials ([5]; variety of dose schedules): very safe drug
- inhibition of tumor growth [6]: 48%

The remaining lines, values behind:

Molecule: COc1cc([C@@H]2c3cc4c(cc3[C@H](O)[C@H]3COC(=O)[C@@H]23)OCO4)cc(OC)c1OC [PPP, cyclolignan picropodophyllin]
- tumor growth, sequential IGF1R inhibition ([1]; 20 mg/kg IP, sequential to mFc-Endo): inhibited tumor growth
- tumor growth, concurrent administration ([1]; concurrent with mFc-Endo): only partially reversed the enhanced growth kinetic
- protein expression in passage 5 LLC tumors (Western blot) ([1]; mouse, in vivo): partially reversed this phenotype

Molecule: FN-Motif: LYAVTGRGDSPASSK (SEQ ID NO: 8; same sequence as SEQ ID NO: 11) (listed as Mus musculus) [reference compound]
- tumor growth (Wild type LLC tumors; [7]): no significant improvement in prevention of tumor growth

Molecule: Superstatin: HTHQDFQPVLHLVLYAVTGRGDSPASSK (SEQ ID NO: 7), NC1-ED Motif-FN-Motif hybrid (listed as Mus musculus)
- tumor growth (Wild type LLC tumors; [7]): potently inhibit tumor growth
- survival (Kaplan-Meier) as compared to control (Wild type LLC tumors; 50 μg peptide every 12 h s.c., day 4 on for 24 days, p<0.03 by log-rank test): significantly prolonged survival
- tumors growing during the treatment period (Wild type LLC tumors; n: 5 in each group): only a single tumor grew
- tumor growth in FN −/− LLC tumors (LLC FN −/− tumor cells): significantly inhibited tumor growth

B2: Endostatin dimer: disulfide-linked endostatin dimer, glutamine to cysteine at position 7, released from Fc-endostatin by enterokinase (protein, UniProt P39060 1572-1754, looked up, variant Q7C)
Endostatin: HSHRDFCPVLHLVALNSPLSGGMRGIRGADFQCFQQARAVGLAGTFRAFLSSRLQDLYSIVRRADRAAVPIVNLKDELLFPSWEALFSGSEGPLKPGARIFSFDGKDVLRHPTWPQKSVWHGSDPNGRRLTESYCETWRTEAPSATGQASSLLGGRLLGQSAASCHHAYIVLCIENSFMTASK
modifications: Endostatin disulfide-linked dimer
notes: disulfide-linked endostatin dimer, glutamine to cysteine at position 7, released from Fc-endostatin by enterokinase
- binding to fibronectin (Elisa) (fibronectin [2]): bound fibronectin
- equilibrium binding constant to fibronectin (Biacore) (fibronectin [3]): High affinity constants
